Columns and labels:
human A2B = target: T1, human A2B (Homo sapiens, UniProt P29275); test: cAMP HTRF assay for Gs coupled receptor, agonist test; assay type: cell-based; settings: agonist activity; HEK293 cells expressing recombinant human A2B; read-out: A2BAR EC50
T1 construct: expressed in transfected cells; host or cells: HEK293
T1 sequence (P29275 1-332): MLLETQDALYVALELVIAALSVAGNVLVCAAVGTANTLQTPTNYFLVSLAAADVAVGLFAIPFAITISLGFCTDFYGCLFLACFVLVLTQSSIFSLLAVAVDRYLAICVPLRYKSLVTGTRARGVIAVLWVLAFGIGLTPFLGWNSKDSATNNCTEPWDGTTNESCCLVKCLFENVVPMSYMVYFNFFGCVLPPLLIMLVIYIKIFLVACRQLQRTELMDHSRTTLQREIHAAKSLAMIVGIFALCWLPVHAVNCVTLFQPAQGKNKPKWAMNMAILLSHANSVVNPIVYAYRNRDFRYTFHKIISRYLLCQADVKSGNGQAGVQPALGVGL
Protocol: (§1) SPA ^35S-GTPγS experiments were conducted with Epics Therapeutics membrane preparations. cAMP HTRF assays were conducted with recombinant cell lines.
Dose response curves are performed in parallel with the reference compounds.
For agonist test (96 well): 12 μL of cells are mixed with 12 μL of the test compound at increasing concentrations and then incubated 30 min at room temperature. After addition of the lysis buffer containing cAMP-d2 and anti-cAMP cryptate detection reagents, plates are incubated 1 hour incubation at room temperature, and fluorescence ratios are measured according to the manufacturer specification, with the HTRF kit.

[1] = target: T2, human Adenosine A1 receptor (Homo sapiens, UniProt P30542); test: GTPγS scintillation proximity assay, agonist testing; assay type: biochemical; settings: agonist activity; membrane extracts of CHO-K1 cells expressing recombinant human A1; read-out: A1AR EC50
T2 construct: host or cells: CHO-K1
T2 sequence (P30542 1-326): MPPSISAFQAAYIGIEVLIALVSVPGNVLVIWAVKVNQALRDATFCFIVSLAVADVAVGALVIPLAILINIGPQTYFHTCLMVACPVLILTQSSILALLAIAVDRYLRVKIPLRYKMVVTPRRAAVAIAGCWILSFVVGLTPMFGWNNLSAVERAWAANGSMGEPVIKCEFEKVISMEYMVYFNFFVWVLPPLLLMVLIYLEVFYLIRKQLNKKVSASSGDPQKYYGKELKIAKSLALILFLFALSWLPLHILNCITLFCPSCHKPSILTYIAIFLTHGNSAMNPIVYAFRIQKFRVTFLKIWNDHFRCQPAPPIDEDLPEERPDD
Protocol: as §1
• Assay buffer: 20 mM HEPES pH 7.4; 100 mM NaCl, 10 μg/mL saponin, MgCl2 at optimized concentration for the specific receptor. • Membranes: membrane extracts prepared from CHO-K1 cells expressing recombinant human Adenosine A1 receptor, thawed on ice, diluted in assay buffer and kept on ice. • GDP: diluted in assay buffer at the optimized concentration for the specific receptor Beads: PVT-WGA (Perkin Elmer, RPNQ001), diluted in assay buffer at 50 mg/mL (0.5 mg/10 μL) • GTPγ^35S: (Perkin Elmer, NEG030X), diluted in assay buffer for a final 0.1 nM assay concentration
Protocol for agonist testing: membranes are mixed with GDP (volume:volume). In parallel, GTPγ[^35S] is mixed with the beads (volume:volume) just before starting the reaction. The following reagents are successively added in the wells of an Optiplate (Perkin Elmer): 50 μL of test or reference ligand, 25 μL of the membranes:GDP mix, and 25 μL of the GTPγ[^35S]:beads mix. The plates are covered with a top seal, mixed on an orbital shaker for 2 min, and then incubated for 1 hour at room temperature. Then the plates are centrifuged for 10 min at 2000 rpm, incubated at room temperature and counted for 30 sec/well with a PerkinElmer TopCount™ reader. • Conditions for the GTPγS scintillation proximity assay are shown in Table 14.

Structure (SMILES)	EC50 (human A2B) [nM]	EC50 [1] [nM]
COCCOc1ccc(-c2c(C#N)c(SCC3COC3)nc(N3CCC3)c2C#N)cc1 [Compound 62]	≥ 10000	350
N#Cc1c(SCC2COC2)nc(N2CCC2)c(C#N)c1-c1ccc(OCCO)cc1 [Compound 63, 2-(Azetidin-1-yl)-4-[4-(2-hydroxyethoxy)phenyl]-6-(oxetan-3-ylmethylsulfanyl)pyridine-3,5-dicarbonitrile]	2960	91
COCCOc1ccc(-c2c(C#N)cnc(SCC3COC3)c2C#N)cc1 [Compound 64]	> 10000	281
N#Cc1c(N)nc(SCc2cccnc2)c(C#N)c1-c1ccc(OCC(O)C(F)(F)F)cc1 (stereo not shown) [Compound 65]	1.9	309
N#Cc1c(N)nc(SCc2cccnc2)c(C#N)c1-c1ccc(OC2COC2)cc1 [Compound 66]	0.2	2.5
COCCOc1ccc(-c2c(C#N)c(N)nc(SCc3cccc4[nH]ccc34)c2C#N)cc1 [Compound 67]	> 10000	17.6
COCCOc1ccc(-c2c(C#N)c(N)nc(SCC(=O)O)c2C#N)cc1 [Compound 68]	4230	> 10000
Cc1ccc(CSc2nc(N3CCC3)c(C#N)c(-c3ccc(OCCO)cc3)c2C#N)cn1 [Compound 69]	26.3	201
Cc1ccc(CSc2nc(N3CCCC3)c(C#N)c(-c3ccc(OCCO)cc3)c2C#N)cn1 [Compound 70]	209	469
Cc1ccc(CSc2nc(N3CCC3)c(C#N)c(-c3ccc(OCCO)cc3)c2C#N)c(C)n1 [Compound 74]	8100	> 10000
Cc1ncccc1CSc1nc(N2CCCC2)c(C#N)c(-c2ccc(OCCO)cc2)c1C#N [Compound 76]	4370	> 10000
Cc1ncccc1CSc1nc(N2CCC2)c(C#N)c(-c2ccc(OCCO)cc2)c1C#N [Compound 77]	2230	> 10000
CNC(=O)CSc1nc(N2CCC2)c(C#N)c(-c2ccc(OCCOC)cc2)c1C#N [Compound 78]	> 10000	643
CNC(=O)CSc1nc(N2CCCC2)c(C#N)c(-c2ccc(OCCOC)cc2)c1C#N [Compound 79]	45	1790
COCCOc1ccc(-c2c(C#N)cnc(SCc3cccnc3)c2C#N)cc1 [Compound 83, 4-[4-(2-Methoxyethoxy)phenyl]-2-(3-pyridylmethylthio)-pyridine-3,5-dicarbonitrile]	> 10000	282
N#Cc1cnc(SCc2cccnc2)c(C#N)c1-c1ccc(OCCO)cc1 [Compound 84]	6.8	44
COCCOc1ccc(-c2c(C#N)c(SCCO)nc(N3CCC3)c2C#N)cc1 [Compound 89]	> 10000	819
N#Cc1c(SCCO)nc(N2CCC2)c(C#N)c1-c1ccc(OCCO)cc1 [Compound 90]	869	347
N#Cc1c(N)nc(SCCOC(F)F)c(C#N)c1-c1ccc(OCCO)cc1 [Compound 93]	64	109
COCCOc1ccc(-c2c(C#N)cnc(SCCO)c2C#N)cc1 [Compound 94]	> 10000	1010
N#Cc1c(SCCO)nc(N2CCCC2)c(C#N)c1-c1ccc(OCCO)cc1 [Compound 95]	459	276
N#Cc1c(SCCC(N)=O)nc(N2CCCC2)c(C#N)c1-c1ccc(OCCO)cc1 [Compound 96]	97	> 10000
N#Cc1c(SCCC(F)(F)F)nc(N2CCCC2)c(C#N)c1-c1ccc(OCCO)cc1 [Compound 104]	> 10000	1790
CC(O)CSc1nc(N2CCCC2)c(C#N)c(-c2ccc(OCCO)cc2)c1C#N (stereo not shown) [Compound 106]	> 10000	502

More lines, now with the values ahead:

EC50 (human A2B) [nM]	EC50 [1] [nM]	Structure (SMILES)
> 10000	97	COCCOc1ccc(-c2c(C#N)c(SCc3cccnc3)nc(N3CCCC3)c2C#N)cc1 [Compound 107]
177	253	N#Cc1c(N)nc(SCC2CCO2)c(C#N)c1-c1ccc(OCCO)cc1 (stereo not shown) [Compound 110]
> 10000	944	COCCOc1ccc(-c2c(C#N)c(N)nc(SCC3CCO3)c2C#N)cc1 (stereo not shown) [Compound 112]
≥ 10000	316	N#Cc1c(N)nc(SCCC(F)(F)F)c(C#N)c1-c1ccc(OCCO)cc1 [Compound 113]
18	7.6	N#Cc1c(SCc2cccnc2)nc(N2CCCC2)c(C#N)c1-c1ccc(OCCO)cc1 [Compound 114]
> 10000	31	COCCOc1ccc(-c2c(C#N)c(SCc3cccnc3)nc(N3CCC3)c2C#N)cc1 [Compound 115]
3.9	2.9	N#Cc1c(SCc2cccnc2)nc(N2CCC2)c(C#N)c1-c1ccc(OCCO)cc1 [Compound 116]
> 10000	997	COCCOc1ccc(-c2c(C#N)c(SCCO)nc(N3CCCC3)c2C#N)cc1 [Compound 117]
925	161	CC(=O)NCCSc1nc(N)c(C#N)c(-c2ccc(OCCO)cc2)c1C#N [Compound 119]
> 10000	1000	COCCOc1ccc(-c2c(C#N)c(N)nc(SCCNC(C)=O)c2C#N)cc1 [Compound 120]
576	327	N#CCCSc1nc(N)c(C#N)c(-c2ccc(OCCO)cc2)c1C#N [Compound 121]
> 10000	1020	COCCOc1ccc(-c2c(C#N)c(N)nc(SCCC#N)c2C#N)cc1 [Compound 122]
> 10000	72	COCCOc1ccc(-c2c(C#N)c(N)nc(SCC3COC3)c2C#N)cc1 [Compound 123]
468	> 10000	N#Cc1c(N)nc(CCc2cccnc2)c(C#N)c1-c1ccc(OCCO)cc1 [Compound 125]
> 10000	91	COCCOc1ccc(-c2c(C#N)c(N)nc(SCC(C)O)c2C#N)cc1 (stereo not shown) [Compound 127]
255	> 10000	CNCCSc1nc(N)c(C#N)c(-c2ccc(OCCO)cc2)c1C#N [Compound 128]
6	121	N#Cc1c(N)nc(SCC(N)=O)c(C#N)c1-c1ccc(OCCO)cc1 [Compound 129]
645	> 10000	CN(C)CCSc1nc(N)c(C#N)c(-c2ccc(OCCO)cc2)c1C#N [Compound 132]
87	768	COCCOc1ccc(-c2c(C#N)c(N)nc(SCC(N)=O)c2C#N)cc1 [Compound 136]
2460	891	CN(C)C(=O)CSc1nc(N)c(C#N)c(-c2ccc(OCCO)cc2)c1C#N [Compound 138]
4.5	87	CNC(=O)CSc1nc(N)c(C#N)c(-c2ccc(OCCO)cc2)c1C#N [Compound 139]
> 10000	7500	CNCCSc1nc(N)c(C#N)c(-c2ccc(OCCOC)cc2)c1C#N [Compound 140]
149	569	N#Cc1c(N)nc(SCC2CCCO2)c(C#N)c1-c1ccc(OCCO)cc1 (stereo not shown) [Compound 141]
59	177	CNC(=O)CSc1nc(N)c(C#N)c(-c2ccc(OCCOC)cc2)c1C#N [Compound 146]
8560	55	COCCOc1ccc(-c2c(C#N)c(N)nc(SCCOC)c2C#N)cc1 [Compound 147]
4.2	12	N#Cc1c(N)nc(SCc2ccccc2)c(C#N)c1-c1ccc(OCCO)cc1 [Compound 150]

From US20250170112A1, “ADENOSINE LIGANDS FOR THE TREATMENT OF NEUROLOGICAL DISORDERS” (Lucy Therapeutics, Inc., priority 2022, published 2025)
